Results taken from patent publication US8952024B2, “Herbicidal pyrimidone derivatives” (E I du Pont de Nemours and Company, priority 2009, dated 2015).

Assays:
Assay in all cases: Test B pre-/postemergence plant response
Format in all cases: in vivo
[1] = tested on: kochia (Kochia scoparia)
Outline: (§1)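 Test compounds, formulated in a non-phytotoxic solvent mixture with surfactant, are applied to the soil surface (loam and sand blend) right after seeding, or sprayed over plants at the 1- to 4-leaf stage grown in peat moss/vermiculite medium. After 13 to 15 days under glasshouse conditions, each species is scored visually from 0 (no effect) to 100 (complete control) against controls.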

[2] = tested on: ragweed (common ragweed, Ambrosia elatior)
Outline: as §1

[3] = tested on: large crabgrass (Digitaria sanguinalis)
Outline: as §1

[4] = tested on: wheat (Triticum aestivum)
Outline: as §1

[5] = tested on: cocklebur (Xanthium strumarium)
Outline: as §1

[6] = tested on: downy bromegrass (Bromus tectorum)
Outline: as §1

[7] = tested on: bermudagrass (Cynodon dactylon)
Outline: as §1

[8] = tested on: wild oat (Avena fatua)
Outline: as §1

[9] = tested on: morningglory (Ipomoea coccinea)
Outline: as §1

[10] = tested on: Surinam grass (Brachiaria decumbens)
Outline: as §1

[11] = tested on: blackgrass (Alopecurus myosuroides)
Outline: as §1

[12] = tested on: Italian ryegrass (Lolium multiflorum)
Outline: as §1

[13] = tested on: woolly cupgrass (Eriochloa villosa)
Outline: as §1

[14] = 31 g ai/ha, postemergence, scale 0 to 100, 0 is no effect, 100 is complete control
[15] = 62 g ai/ha, postemergence, 0 is no effect, 100 is complete control, 13 to 15 days
[16] = 250 g ai/ha, Preemergence, 0 to 100 scale
[17] = Postemergence, 125 g ai/ha, visual rating after 13 to 15 days, scale 0 (no effect) to 100 (complete control)
[18] = Postemergence, 250 g ai/ha, scale 0 to 100 (0 no effect, 100 complete control)
[19] = Preemergence, 31 g ai/ha, scale 0 to 100 (0 no effect, 100 complete control)
[20] = Preemergence, 125 g ai/ha, scale 0 to 100, 0 no effect, 100 complete control
[21] = Preemergence, 62 g ai/ha, scale 0 to 100 (0 no effect, 100 complete control)

CCCc1ncc(C(=O)C2=C(O)CCCC2=O)c(=O)n1-c1ccccc1C [Compound 73]
Plant response rating, Kochia [1, 14]: 75
Kochia plant response rating (0 to 100 scale) [1, 15]: 80
Plant response rating, Kochia [1, 16]: 90
Plant response rating, Kochia [1, 17]: 90
Plant response rating, Kochia [1, 18]: 90
Plant response rating, Kochia [1, 19]: 0
Plant response rating, Kochia [1, 20]: 80
Plant response rating, Ragweed [2, 14]: 75
Ragweed plant response rating (0 to 100 scale) [2, 15]: 80
Plant response rating, Ragweed [2, 17]: 85
Plant response rating, Ragweed [2, 18]: 85
Plant response rating, Ragweed [2, 19]: 45
Plant response rating, Ragweed [2, 21]: 60
Plant response rating, Ragweed [2, 20]: 75
Plant response rating, Crabgrass, Large [3, 14]: 80
Crabgrass, Large plant response rating (0 to 100 scale) [3, 15]: 85
Plant response rating, Crabgrass, Large [3, 16]: 100
Plant response rating, Crabgrass, Large [3, 17]: 90
Plant response rating, Crabgrass, Large [3, 18]: 95
Plant response rating, Crabgrass, Large [3, 19]: 85
Plant response rating, Crabgrass, Large [3, 21]: 98
Plant response rating, Crabgrass, Large [3, 20]: 100
Plant response rating, Wheat [4, 14]: 0
Wheat plant response rating (0 to 100 scale) [4, 15]: 35
Plant response rating, Wheat [4, 17]: 40
Plant response rating, Wheat [4, 18]: 50
Plant response rating, Wheat [4, 19]: 0
Plant response rating, Wheat [4, 21]: 0
Plant response rating, Wheat [4, 20]: 5
Plant response rating, Cocklebur [5, 14]: 0
Cocklebur plant response rating (0 to 100 scale) [5, 15]: 45
Plant response rating, Cocklebur [5, 16]: 65
Plant response rating, Cocklebur [5, 17]: 65
Plant response rating, Cocklebur [5, 18]: 80
Plant response rating, Cocklebur [5, 19]: 0
Plant response rating, Cocklebur [5, 21]: 0
Plant response rating, Cocklebur [5, 20]: 60
Plant response rating, Bromegrass, Downy [6, 14]: 20
Bromegrass, Downy plant response rating (0 to 100 scale) [6, 15]: 45
Plant response rating, Bromegrass, Downy [6, 16]: 20
Plant response rating, Bromegrass, Downy [6, 17]: 50
Plant response rating, Bromegrass, Downy [6, 18]: 60
Plant response rating, Bromegrass, Downy [6, 19]: 0
Plant response rating, Bromegrass, Downy [6, 21]: 5
Plant response rating, Bromegrass, Downy [6, 20]: 5
Plant response rating, Bermudagrass [7, 14]: 65
Bermudagrass plant response rating (0 to 100 scale) [7, 15]: 80
Plant response rating, Bermudagrass [7, 16]: 100
Plant response rating, Bermudagrass [7, 17]: 90
Plant response rating, Bermudagrass [7, 18]: 90
Plant response rating, Bermudagrass [7, 19]: 50
Plant response rating, Bermudagrass [7, 21]: 98
Plant response rating, Bermudagrass [7, 20]: 98
Plant response rating, Oat, Wild [8, 14]: 55
Oat, Wild plant response rating (0 to 100 scale) [8, 15]: 80
Plant response rating, Oat, Wild [8, 17]: 80
Plant response rating, Oat, Wild [8, 18]: 95
Plant response rating, Oat, Wild [8, 19]: 0
Plant response rating, Oat, Wild [8, 21]: 0
Plant response rating, Oat, Wild [8, 20]: 0
Plant response rating, Morningglory [9, 14]: 0
Morningglory plant response rating (0 to 100 scale) [9, 15]: 50
Plant response rating, Morningglory [9, 17]: 75
Plant response rating, Morningglory [9, 18]: 95
Plant response rating, Morningglory [9, 19]: 0
Plant response rating, Morningglory [9, 21]: 0
Plant response rating, Morningglory [9, 20]: 45
Plant response rating, Surinam Grass [10, 14]: 80
Surinam Grass plant response rating (0 to 100 scale) [10, 15]: 85
Plant response rating, Surinam Grass [10, 17]: 85
Plant response rating, Surinam Grass [10, 18]: 85
Plant response rating, Surinam Grass [10, 19]: 85
Plant response rating, Surinam Grass [10, 21]: 100
Plant response rating, Surinam Grass [10, 20]: 100
Plant response rating, Blackgrass [11, 14]: 0
Blackgrass plant response rating (0 to 100 scale) [11, 15]: 10
Plant response rating, Blackgrass [11, 16]: 10
Plant response rating, Blackgrass [11, 17]: 10
Plant response rating, Blackgrass [11, 18]: 30
Plant response rating, Blackgrass [11, 19]: 0
Plant response rating, Blackgrass [11, 21]: 0
Plant response rating, Blackgrass [11, 20]: 0
Plant response rating, Ryegrass, Italian [12, 14]: 35
Ryegrass, Italian plant response rating (0 to 100 scale) [12, 15]: 45
Plant response rating, Ryegrass, Italian [12, 17]: 60
Plant response rating, Ryegrass, Italian [12, 18]: 70
Plant response rating, Ryegrass, Italian [12, 19]: 0
Plant response rating, Ryegrass, Italian [12, 21]: 0
Plant response rating, Ryegrass, Italian [12, 20]: 0
Plant response rating, Cupgrass, Woolly [13, 14]: 60
Cupgrass, Woolly plant response rating (0 to 100 scale) [13, 15]: 65
Plant response rating, Cupgrass, Woolly [13, 16]: 80
Plant response rating, Cupgrass, Woolly [13, 17]: 65
Plant response rating, Cupgrass, Woolly [13, 18]: 65
Plant response rating, Cupgrass, Woolly [13, 19]: 10
Plant response rating, Cupgrass, Woolly [13, 21]: 20
Plant response rating, Cupgrass, Woolly [13, 20]: 55
